Results: PubChem BioAssay (NCI)
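The compound was tested at five concentrations on cells cultured in 96-well plates, with a 48-hour exposure period. At the GI50, growth is halved. At the TGI there is no net growth.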

Tests used:
Experiment in all cases: NCI-60 cell line screen, 48 h
[1] = test system: CCRF-CEM leukemia
[2] = test system: SF-268 CNS
[3] = test system: M14 melanoma
[4] = test system: MDA-MB-435
[5] = test system: SK-MEL-2 melanoma
[6] = test system: RPMI-8226 leukemia
[7] = test system: NCI-H226 lung
[8] = test system: SNB-19 CNS
[9] = test system: MALME-3M melanoma
[10] = test system: T-47D breast
[11] = test system: UO-31 renal
[12] = test system: 786-0 renal
[13] = test system: HL-60(TB) leukemia
[14] = test system: LOX IMVI melanoma
[15] = test system: OVCAR-3 ovarian
[16] = test system: HCT-15 colon
[17] = test system: MCF7 breast
[18] = test system: SN12C renal
[19] = test system: HS 578T breast
[20] = test system: OVCAR-8 ovarian
[21] = test system: SF-295 CNS
[22] = test system: OVCAR-4 ovarian
[23] = test system: CAKI-1 renal
[24] = test system: SF-539 CNS
[25] = test system: HOP-62 NSCLC
[26] = test system: BT-549 breast
[27] = test system: HOP-92 NSCLC
[28] = test system: PC-3 prostate
[29] = test system: NCI/ADR-RES ovarian
[30] = test system: ACHN renal
[31] = test system: OVCAR-5 ovarian
[32] = test system: A498 renal
[33] = test system: DU-145 prostate
[34] = test system: MOLT-4 leukemia
[35] = test system: SK-OV-3 ovarian
[36] = test system: U251 CNS
[37] = test system: HCT-116 colon
[38] = test system: HT29 colon
[39] = test system: HCC-2998 colon
[40] = test system: K-562 leukemia
[41] = test system: COLO 205 colon
[42] = test system: SK-MEL-28 melanoma
[43] = test system: NCI-H23 lung
[44] = test system: SNB-75 CNS
[45] = test system: TK-10 renal
[46] = test system: A549 NSCLC
[47] = test system: SK-MEL-5 melanoma
[48] = test system: RXF 393 renal
[49] = test system: EKVX NSCLC
[50] = test system: SW-620 colon
[51] = test system: KM12 colon
[52] = test system: UACC-257 melanoma
[53] = test system: NCI-H522 lung
[54] = test system: MDA-MB-231 breast
[55] = test system: IGROV1 ovarian
[56] = test system: NCI-H460 lung

COc1cc2c(cc1O)c(=O)n(CCN(C)C)c1c3cc4c(cc3ncc21)OCO4
GI50 [1]: < 10 nM | TGI [1]: > 26800 nM | GI50 [2]: < 10 nM | TGI [2]: 19900 nM | GI50 [3]: < 10 nM | TGI [3]: 53.5 nM | GI50 [4]: 19.5 nM | TGI [4]: 258 nM | GI50 [5]: 136 nM | TGI [5]: 360 nM | GI50 [6]: 24.2 nM | TGI [6]: 434 nM | GI50 [7]: 18.4 nM | TGI [7]: 124 nM | GI50 [8]: < 10 nM | TGI [8]: 5300 nM | GI50 [9]: 29.1 nM | TGI [9]: 192 nM | GI50 [10]: < 10 nM | TGI [10]: 63.1 nM | GI50 [11]: < 12.4 nM | TGI [11]: 170 nM | GI50 [12]: < 10 nM | TGI [12]: 29.1 nM | GI50 [13]: < 10 nM | TGI [13]: 104 nM | GI50 [14]: < 10 nM | TGI [14]: 24.5 nM | GI50 [15]: 38.8 nM | TGI [15]: 423 nM | GI50 [16]: 28.4 nM | GI50 [17]: < 10 nM | TGI [17]: 1620 nM | GI50 [18]: < 10 nM | TGI [18]: 10500 nM | GI50 [19]: 366 nM | TGI [19]: 26100 nM | GI50 [20]: < 11.6 nM | TGI [20]: 2520 nM | GI50 [21]: 51.7 nM | TGI [21]: 4020 nM | GI50 [22]: 51.1 nM | TGI [22]: 1740 nM | GI50 [23]: < 10 nM | TGI [23]: 1240 nM | GI50 [24]: < 10 nM | TGI [24]: 22.3 nM | GI50 [25]: < 10 nM | TGI [25]: 44 nM | GI50 [26]: 25 nM | TGI [26]: 915 nM | GI50 [27]: 32.5 nM | TGI [27]: 455 nM | GI50 [28]: 243 nM | TGI [28]: 2510 nM | GI50 [29]: < 10 nM | TGI [29]: 526 nM | GI50 [30]: < 10 nM | TGI [30]: 46.4 nM | GI50 [31]: 325 nM | TGI [31]: 2820 nM | GI50 [32]: 23.4 nM | TGI [32]: 88.2 nM | GI50 [33]: < 10 nM | TGI [33]: 1940 nM | GI50 [34]: < 10 nM | TGI [34]: 27.1 nM | GI50 [35]: < 10.6 nM | TGI [35]: 87.6 nM | GI50 [36]: < 10 nM | TGI [36]: 42.6 nM | GI50 [37]: 11.7 nM | TGI [37]: 1250 nM | GI50 [38]: 729 nM | TGI [38]: 7860 nM | GI50 [39]: 109 nM | TGI [39]: 398 nM | GI50 [40]: 19 nM | TGI [40]: > 100000 nM | GI50 [41]: 1520 nM | TGI [41]: 15200 nM | GI50 [42]: 53 nM | TGI [42]: 1010 nM | GI50 [43]: < 10 nM | TGI [43]: 151 nM | GI50 [44]: < 15.2 nM | TGI [44]: 315 nM | GI50 [45]: 127 nM | TGI [45]: 524 nM | GI50 [46]: 35.6 nM | TGI [46]: 594 nM | GI50 [47]: 12.1 nM | TGI [47]: 31.2 nM | GI50 [48]: 31.8 nM | TGI [48]: 116 nM | GI50 [49]: 239 nM | TGI [49]: 3660 nM | GI50 [50]: < 10 nM | TGI [50]: > 33200 nM | GI50 [51]: 177 nM | GI50 [52]: 45.1 nM | TGI [52]: 285 nM | GI50 [53]: < 10.4 nM | TGI [53]: 154 nM | GI50 [54]: 61.6 nM | TGI [54]: 5580 nM | GI50 [55]: 41.7 nM | TGI [55]: 8200 nM | GI50 [56]: < 10 nM | TGI [56]: 329 nM
